Source: US20080207614A1, “QUINAZOLINE DERIVATIVES FOR THE TREATMENT AND PREVENTION OF DIABETES AND OBESITY” (SK CHEMICALS CO., LTD., priority 2004, published 2008)

What was measured:
[1] = test system: C2C12 muscle cells; assay: Analysis of glucose absorption (2-deoxyglucose) in differentiated C2C12 muscle cells; format: cell-based; settings: test materials 10 μM, times relative to control group
In short: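 Uptake of 0.2 μCi 2-deoxyglucose over 20 min, counted radiometrically in lysed cells. Before tracer, compounds (10 μM) were applied for 30 min to C2C12 cells differentiated 6 days in 1% serum and equilibrated 3 h in 5 mM glucose KRB.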

[2] = test system: AMPK; assay: Measurement of AMPK activity by Western blot in C2C12 cells; format: cell-based; set-up: key to AMPK activity (degree of phosphorylation of serine-79 and threonine-172): fold increase in threonine-172 phosphorylation; AMPK activity (degree of phosphorylation of serine-79): unit not given here; settings: 10 μM for 50 minutes; for AMPK activity (degree of phosphorylation of serine-79 and threonine-172): no superscript: Western blot of serine-79 and threonine-172 phosphorylation; for AMPK activity (class: degree of phosphorylation of threonine-172): strong/mild/weak; for AMPK activity (degree of phosphorylation of serine-79): footnote a: Western blot of serine-79 phosphorylation
Description: C2C12 cells were cultured and differentiated in the same manner as in Experimental Example 1. Treatment with the test materials was also performed in the same manner as in Experimental Example 1 (10 μM for 50 minutes). The culture medium was removed and the cells were washed for 2 times with PBS and protein extracts were obtained using a lysis buffer (50 mM tris-HCl, pH 7.4, 1% NP-40, 0.25% sodium deoxycholate, 150 mM NaCl, 1 mM EDTA, 1 mM PMSF, 1 mM sodium o-vanadate, 1 mM NaF, 1 μg/mL apronitin, 1 μg/mL leu-peptin, 1 μg/mL pepstatin). The AMPK activity was determined from Western blot analysis of the degree of phosphorylation of serine-79 […] acetyl CoA carboxylase and the degree of phosphorylation of threonine-172. The amount of ERK (extracellular signal regulated protein kinase) was confirmed by Western blot in order to quantify the proteins.
The result of Western blot analysis is given in Table 3 below, wherein “strong” means that the degree of phosphorylation of threonine-172 increased by 3 times or more, “mild” means that the degree of phosphorylation of threonine-172 increased by 1 to 3 times and “weak” means that the degree of phosphorylation of threonine-172 increased by less than 1 time.

| Structure (SMILES) | Glucose absorption [1] | AMPK activity (degree of phosphorylation of serine-79 and threonine-172) [2] | AMPK activity (class: degree of phosphorylation of threonine-172) [2] | AMPK activity (degree of phosphorylation of serine-79) [2] |
| --- | --- | --- | --- | --- |
| COc1cc(OC)c(CNc2nc(C3CC3)nc3ccccc23)c(OC)c1 [Compound 392, (2-Cyclopropylquinazolino-4-yl)-(2,4,6-trimethoxybenzyl)-amine] | 1.1 | 2.7 |  |  |
| CC1CCCC(Nc2nc(-c3ccccc3)nc3ccccc23)C1C (stereo not drawn) [Compound 143, (2,3-Dimethylcyclohexyl)-(2-phenylquinazolino-4-yl)-amine] | 2.3 | 2.4 | strong (“strong” means that the degree of phosphorylation of threonine-172 increased by 3 times or more) |  |
| CC(C)c1nc(NCc2cccc(F)c2)c2ccccc2n1 [Compound 183, (3-Fluorobenzyl)-(2-isopropylquinazolino-4-yl)-amine] | 3.3 | 2.6 | strong (“strong” means that the degree of phosphorylation of threonine-172 increased by 3 times or more) |  |
| C1=C(CCNc2nc(-c3ccccc3)nc3ccccc23)CCCC1 [Compound 131, (2-Cyclohex-1-enylethyl)-(2-phenylquinazolino-4-yl)-amine] | 2.3 | 1.8 | strong (“strong” means that the degree of phosphorylation of threonine-172 increased by 3 times or more) |  |
| Clc1cccc(CNc2nc(-c3ccccc3)nc3ccccc23)c1 [Compound 145, (3-Chlorobenzyl)-(2-phenylquinazolino-4-yl)-amine] | 2.2 | 2.7 | strong (“strong” means that the degree of phosphorylation of threonine-172 increased by 3 times or more) |  |
| c1ccc(CCCCNc2nc(-c3ccccn3)nc3ccccc23)cc1 [Compound 228, (4-Phenylbutyl)-(2-pyridino-2-ylquinazolino-4-yl)-amine] | 2.1 | 7.9 | strong (“strong” means that the degree of phosphorylation of threonine-172 increased by 3 times or more) |  |
| CC(C)c1nc(NCc2cccc(C(F)(F)F)c2)c2ccccc2n1 [Compound 178, (2-Isopropylquinazolino-4-yl)-(3-trifluoromethylbenzyl)-amine] | 4.2 | 5.7 | strong (“strong” means that the degree of phosphorylation of threonine-172 increased by 3 times or more) |  |
| CCSc1nc(NCCc2cccc(F)c2)c2ccccc2n1 [Compound 10, (2-Ethylsulfanylquinazolino-4-yl)-[2-(3-fluorophenyl)-ethyl]-amine] | 1.5 |  |  | 5.3^a |
| CCCc1nc(NCc2ccc(OC)cc2)c2ccccc2n1 [Compound 395, (4-Methoxybenzyl)-(2-propylquinazolino-4-yl)-amine] | 1.2 | 7.0 |  |  |
| CC(C)c1nc(NCCc2ccccc2)c2ccccc2n1 [Compound 179, (2-Isopropylquinazolino-4-yl)-phenethylamine] | 2.9 | 3.8 | strong (“strong” means that the degree of phosphorylation of threonine-172 increased by 3 times or more) |  |
| ClC(Cl)(Cl)c1nc(NCCCCc2ccccc2)c2ccccc2n1 [Compound 6, (4-Phenylbutyl)-(2-trichloromethylquinazolino-4-yl)-amine] | 1.4 |  |  | 4.7^a |
| Fc1cccc(CCNc2nc(-c3ccccc3)nc3ccccc23)c1 [Compound 103, [2-(3-Fluorophenyl)-ethyl]-(2-phenylquinazolino-4-yl)-amine] | 2.2 | 2.6 | strong (“strong” means that the degree of phosphorylation of threonine-172 increased by 3 times or more) |  |
| COc1cc(CNc2nc(C(C)c3ccccc3)nc3ccccc23)cc(OC)c1 (stereo not drawn) [Compound 376, (3,5-Dimethoxybenzyl)-[2-(1-phenylethyl)-quinazolino-4-yl]-amine] | 1.1 | 1.1 |  |  |
| c1ccc2c(NCc3ccc4c(c3)OCO4)nc(N3CCOCC3)nc2c1 [Compound 309, Benzo[1,3]dioxol-5-ylmethyl-(2-morpholino-4-ylquinazolino-4-yl)-amine] | 0.8 | 1.3 |  |  |
| COc1cc(CNc2nc(-c3ccccc3)nc3ccccc23)ccc1O [Compound 113, 2-Methoxy-4-[(2-phenylquinazolino-4-ylamino)-methyl]-phenol] | 2.1 | 2.1 | strong (“strong” means that the degree of phosphorylation of threonine-172 increased by 3 times or more) |  |
| COc1cccc(CNc2nc(C3CCCCC3)nc3ccccc23)c1 [Compound 200, (2-Cyclohexylquinazolino-4-yl)-(3-methoxybenzyl)-amine] | 2.7 | 1.5 | strong (“strong” means that the degree of phosphorylation of threonine-172 increased by 3 times or more) |  |
| COc1ccc(CNc2nc(N3CCCC3)nc3ccccc23)cc1OC [Compound 299, (3,4-Dimethoxybenzyl)-(2-pyrrolidino-1-ylquinazolino-4-yl)-amine] | 0.8 | 0.6 |  |  |
| COc1ccc(CNc2nc(N3CCN(C)CC3)nc3ccccc23)cc1 [Compound 286, (4-Methoxybenzyl)-[2-(4-methylpiperazino-1-yl)-quinazolino-4-yl]-amine] |  | 1.0 |  |  |
| COc1ccc(CNc2nc(C(OC)c3ccccc3)nc3ccccc23)cc1OC (stereo not drawn) [Compound 366, (3,4-Dimethoxybenzyl)-[2-(methoxyphenylmethyl)-quinazolino-4-yl]-amine] |  | 1.6 |  |  |
| COc1ccc(CNc2nc(-c3cccs3)nc3ccccc23)cc1 [Compound 351, (4-Methoxybenzyl)-(2-thiopenyl-2-ylquinazolino-4-yl)-amine] |  | 0.7 |  |  |
| CCOc1nc(NCc2ccc(OC)cc2OC)c2ccccc2n1 [Compound 319, (2,4-Dimethoxybenzyl)-(2-ethoxyquinazolino-4-yl)-amine] |  | 1.5 |  |  |
| COc1cccc(CNc2nc(N3CCN(C)CC3)nc3ccccc23)c1OC [Compound 290, (2,3-Dimethoxybenzyl)-[2-(4-methylpiperazino-1-yl)-quinazolino-4-yl]-amine] |  | 1.0 |  |  |
| COc1cc(CNc2nc(N3CCCCC3)nc3ccccc23)cc(OC)c1OC [Compound 312, (2-Piperidino-1-ylquinazolino-4-yl)-(3,4,5-trimethoxybenzyl)-amine] |  | 0.3 |  |  |
| COc1cccc(CNc2nc(N3CCCC3)nc3ccccc23)c1 [Compound 279, (3-Methoxybenzyl)-(2-pyrrolidino-1-ylquinazolino-4-yl)-amine] |  | 1.3 |  |  |
| CCCc1nc(NCc2cc(OC)ccc2OC)c2ccccc2n1 [Compound 402, (2,5-Dimethoxybenzyl)-(2-propylquinazolino-4-yl)-amine] |  | 0.5 |  |  |
| COc1cccc(CNc2nc(N3CCN(C)CC3)nc3ccccc23)c1 [Compound 282, (3-Methoxybenzyl)-[2-(4-methylpiperazino-1-yl)-quinazolino-4-yl]-amine] |  | 0.9 |  |  |
| COc1cc(OC)c(CNc2nc(N3CCCCC3)nc3ccccc23)c(OC)c1 [Compound 316, (2-Piperidino-1-ylquinazolino-4-yl)-(2,4,6-trimethoxybenzyl)-amine] |  | 1.2 |  |  |
| COc1ccc(OC)c(CNc2nc(N3CCCC3)nc3ccccc23)c1 [Compound 295, (2,5-Dimethoxybenzyl)-(2-pyrrolidino-1-ylquinazolino-4-yl)-amine] |  | 0.2 |  |  |
| c1ccc2c(NCc3ccc4c(c3)OCO4)nc(C3CC3)nc2c1 [Compound 385, Benzo[1,3]dioxol-5-ylmethyl-(2-cyclopropylquinazolino-4-yl)-amine] |  | 2.8 |  |  |
| COc1ccc(CNc2nc(-c3ccco3)nc3ccccc23)c(OC)c1 [Compound 346, (2,4-Dimethoxybenzyl)-(2-furano-2-ylquinazolino-4-yl)-amine] |  | 0.8 |  |  |
